Measurements taken from patent publication US8198293B2, “Oxymatrine compositions and related methods for treating and preventing chronic infectious diseases” (priority 2008, dated 2012).

Columns and labels:
coxsackievirus B = conditions: in vitro, cell cultures; mechanism not defined; cited from earlier work
[1] = tested on: Coxsackievirus B myocarditis; conditions: intravenous; chronic Coxsackievirus B myocarditis; 0% in placebo group; cited from earlier work
[2] = tested on: chronic enterovirus infection / chronic fatigue; experiment: Case reports: treatment of chronic fatigue (Examples 2-5); type: in vivo, human; conditions: Example 5 patient, before oxymatrine
Description: A person with episodes of diarrhea while traveling to Tonga developed severe respiratory infection soon thereafter. The symptoms consisted of fevers to 105° F., night sweats, diffuse myalgia, tachycardia, fatigue, sinus congestion and cough, and unresponsiveness to antibiotics. The patient developed profound fatigue thereafter and went on total disability three months after the onset of symptoms. Initial Coxsackie B virus (CBV) 3, CVB4 and echovirus 9 antibody titers were 1:320, 1:160, 1:80 (normal <1:10), respectively.
The patient could not work for the next 18 months. They were started on oxymatrine at 300 mg twice a day (bid). After taking oxymatrine for two months, they were able to take short walks, but still exhausted after one hour of activity requiring five hour naps. At the end of three months of therapy, they started having fevers of 104-105° F. for several days with marked decrease in diffuse myalgia. […] CVB3, CVB4 and echovirus antibody three months after therapy were 1:160, 1:160 and 1:20, respectively.
A person who had recurrent episodes of debilitating fatigue became totally incapacitated after approximately 17 years. […] They went into remission but relapsed nine months later after developing a minor upper respiratory infection. They improved minimally after several months of bed rest, but was barely able to work six hours per day. They had brain fog, myalgia ( 7/10 pain) and was barely able to walk even 1-2 blocks.
Three days after taking oxymatrine at a dose of 300 mg bid, the myalgia intensified ( 10/10 pain), especially one hour after taking the pills. One week after starting oxymatrine, routine laboratory tests including CBC, chemistry panel and creatine phosphokinase (CPK) were normal. They continued having significant fatigue and myalgia for the next three weeks, but the symptoms resolved one week after stopping the medication. Mild increase in myalgia recurred three days after resuming oxymatrine, but resolved after continuing the medication for the next two weeks. The patient felt well at the end of three months with minimal discomfort in a few muscle groups.
Severe myalgia recurred after resuming vigorous exercise for three weeks while taking oxymatrine. They had to stop exercise for the two months allowing cessation of myalgia. After taking oxymatrine for six months, the patient felt well. Over the next six months after stopping the medication, the patient continuously performed heavy physical activities without significant difficulty. After developing another episode of upper respiratory symptoms, their symptoms relapsed. They have resumed oxymatrine but experienced increasing myalgia as the fatigue improved.
A person with a known history of frequent respiratory infections and vasovagal syncope developed respiratory infection, which was followed by bedridden fatigue. Enteroviral protein was detected in the stomach biopsy consistent with chronic enterovirus infection. […] After vigorous exercise, they would still have relapses of bedridden fatigue for one day but continued to work 10-12 hours per day for the next 12 months, walking two miles per day. Laboratory tests were normal while on therapy.
A person developed debilitating fatigue, sore throat, oral ulcers, vertigo, headaches and cognitive dysfunction two months after having a flu-like illness. […] Approximately four years later, the patient started taking oxymatrine. After an initial increase of gastrointestinal symptoms for the first two weeks, the patient tolerated 500 mg per day of oxymatrine.
The symptoms continued for two weeks and resolved after stopping oxymatrine. […] They continued to improve for 12 months after taking the medication.

[3] = tested on: Mycobacterium avium complex (MAC); experiment: Case report: Mycobacterium avium complex infection of the lung; type: in vivo, human; conditions: before oxymatrine, added to four-drug therapy
Description: A person with known history of Mycobacterium avium complex (MAC) infection of the lung and bronchiectasis for several years was treated with clarithromycin, ethambutol, ciprofloxacin and rifabutin for about five years. […] Intravenous amikacin was added following right middle and left lingula lobectomy. In spite of the above therapy, sputum and repeat bronchial washing obtained by bronchoscopy grew MAC within three weeks. A computed tomography scan of the chest remained unchanged except for the post-surgical changes.
Because of persistent positive cultures despite the four drug therapies, the patient was started on oxymatrine, which they tolerated well. […] Sputum became clear in color then resolved. About two months after the start of oxymatrine, the patient had fevers, flu-like symptoms, increase in non-productive cough, bilateral uveitis and elevation of liver enzymes to 3.5 times normal values. The symptoms lasted two weeks and resolved after tapering dose of oxymatrine to 200 mg bid. Liver enzymes returned to normal within six weeks. […] The anti-MAC medications were discontinued after […] of oxymatrine therapy. The dose of oxymatrine was tapered to 100 mg tid at four and a half months of therapy and then stopped after six months of total therapy. The patient felt well at the six month follow-up.

## O=C1CCC[C@@H]2[C@H]3CCCN4CCC[C@@H](CN12)[C@@H]34 [matrine]
Coxsackievirus B
  growth inhibition of coxsackievirus B: growth inhibition
[1]
  patients with improvement of cardiac function, increase in lymphocyte number and function, and loss of viral markers: more than 90%

## CC(C)[C@H](N)C(=O)OCCOCn1cnc2c(=O)[nH]c(N)nc21 [valacyclovir]
[2]
  response of fatigue and other symptoms: did not respond

## gamma interferon
[3]
  benefit on persistent positive sputum culture for MAC: without significant benefit
